Among the test systems are EKVX NSCLC; HCT-15 colon; HL-60(TB) leukemia; HT29 colon; KM12 colon; MDA-MB-231 breast; NCI-H23 lung; OVCAR-3 ovarian; SK-OV-3 ovarian; SN12C renal.
What all share (assay): growth of human tumour cells (NCI), 48 h

The structures appear in SMILES notation.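 In this assay, cells in 96-well plates receive the compound at five concentrations for 48 hours. Endpoints are linearly interpolated between the surrounding concentrations. The concentration for 50% growth inhibition is given as GI50. At the TGI there is no net growth.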 A value given as a limit tells only on which side of the number the result lay.

Take `N#CC1=C(N)NC(=S)C(C#N)C12Nc1ccccc1S2` (centres undefined): the GI50 in the experiment with EKVX NSCLC was 793 nM; in the experiment on HCT-15 colon, 15000 nM; in the experiment with HL-60(TB) leukemia it was 35100 nM; with HT29 colon it was 29300 nM; with KM12 colon, 24800 nM; in the experiment on MDA-MB-231 breast it was 11000 nM. The GI50 is 13400 nM with NCI-H23 lung, 12.6 µM with OVCAR-3 ovarian, 27.1 µM in the experiment with SK-OV-3 ovarian and 14400 nM with SN12C renal. In addition, the TGI in the experiment with EKVX NSCLC was 8.04 µM; in the experiment with HCT-15 colon, 42.3 µM; in the experiment with HL-60(TB) leukemia it was more than 100 µM; with HT29 colon, 77.7 µM; in the experiment on KM12 colon, more than 100 µM; with MDA-MB-231 breast it was 32.9 µM. Further, the TGI in the experiment on NCI-H23 lung is 33.2 µM; in the experiment on OVCAR-3 ovarian, 40.1 µM; in the experiment with SK-OV-3 ovarian, 77.8 µM; in the experiment with SN12C renal, 33.2 µM.
`Cc1cc(Nc2cc(N3CCN(C)CC3)nc(C#Cc3ccccc3)n2)n[nH]1`: the GI50 with EKVX NSCLC was 11000 nM; with HCT-15 colon it was 2230 nM; in the experiment with HL-60(TB) leukemia, 2520 nM; in the experiment on HT29 colon it was 2020 nM; with KM12 colon, 350 nM; in the experiment with MDA-MB-231 breast, 3820 nM. In addition, the GI50 in the experiment with NCI-H23 lung was 3250 nM; in the experiment on OVCAR-3 ovarian it was 4.46 µM; in the experiment with SK-OV-3 ovarian it was 2.16 µM; in the experiment on SN12C renal it was 2400 nM. The TGI in the experiment with EKVX NSCLC amounted to 23.4 µM; with HCT-15 colon, 15.5 µM; in the experiment on HL-60(TB) leukemia, 14.8 µM; in the experiment on HT29 colon it was 8.08 µM; in the experiment with KM12 colon, 11.7 µM; in the experiment on MDA-MB-231 breast it was 16.5 µM. The TGI in the experiment with NCI-H23 lung is 18.5 µM; with OVCAR-3 ovarian it was 17.8 µM; in the experiment on SK-OV-3 ovarian, 13.2 µM; in the experiment with SN12C renal, 14.2 µM.
As for `Cc1cc(C(=O)Nc2cc(Nc3ncccc3-c3ncnc4nc[nH]c34)ccc2F)cc(C(C)(C)C#N)c1`, the GI50 with EKVX NSCLC is 4030 nM; with HCT-15 colon, 2970 nM; with HL-60(TB) leukemia, 167 nM; with HT29 colon it was 73.9 nM; with KM12 colon it was 2900 nM; in the experiment on MDA-MB-231 breast, 123 nM. The GI50 was 379 nM in the experiment with NCI-H23 lung, 5.99 µM in the experiment on OVCAR-3 ovarian, 26 µM with SK-OV-3 ovarian and 1910 nM in the experiment with SN12C renal. Also, the TGI in the experiment on EKVX NSCLC is more than 100 µM; in the experiment on HCT-15 colon, more than 100 µM; with HL-60(TB) leukemia, more than 100 µM; with HT29 colon it was more than 100 µM; with KM12 colon, more than 100 µM; in the experiment with MDA-MB-231 breast, 5.36 µM. Moreover, the TGI with NCI-H23 lung, in the experiment with OVCAR-3 ovarian, in the experiment with SK-OV-3 ovarian and in the experiment with SN12C renal was more than 100 µM throughout.
As to `NC1(C(=O)O)CSSC1`, the GI50 with EKVX NSCLC was 4490 nM; in the experiment on HCT-15 colon, 3880 nM; in the experiment with HL-60(TB) leukemia it was 2820 nM; in the experiment with HT29 colon it was 3840 nM; in the experiment on KM12 colon, 11900 nM; in the experiment on MDA-MB-231 breast it was 17100 nM. The GI50 in the experiment with NCI-H23 lung is 3020 nM; in the experiment with OVCAR-3 ovarian, 4.75 µM; with SK-OV-3 ovarian, 20.3 µM; in the experiment on SN12C renal, 3000 nM. Also, the TGI in the experiment with EKVX NSCLC was 35 µM; in the experiment with HCT-15 colon, 84.7 µM; with HL-60(TB) leukemia, 11.9 µM; in the experiment on HT29 colon it was 31.7 µM; with KM12 colon it was 80.9 µM; with MDA-MB-231 breast it was 44.3 µM. Besides, the TGI was 14.8 µM in the experiment on NCI-H23 lung, 59.3 µM in the experiment with OVCAR-3 ovarian, 82.5 µM in the experiment with SK-OV-3 ovarian and 12.3 µM in the experiment with SN12C renal.
As to `C=C[C@@]1(C)CC(=O)[C@]2(O)[C@@]3(C)[C@@H](O)CCC(C)(C)[C@@H]3[C@H](O)[C@@H](OC(C)=O)[C@@]2(C)O1`, the TGI with EKVX NSCLC, in the experiment with HCT-15 colon, in the experiment on HL-60(TB) leukemia, in the experiment with HT29 colon, with KM12 colon and with MDA-MB-231 breast was more than 100 µM each time. The TGI in the experiment on NCI-H23 lung, in the experiment on OVCAR-3 ovarian, in the experiment on SK-OV-3 ovarian and in the experiment with SN12C renal was more than 100 µM in each case.
For the molecule `O=C(Nc1cccc(Cl)c1)c1cc(Cl)ccc1O`, the GI50 was 1830 nM in the experiment with EKVX NSCLC; 1340 nM in the experiment on HCT-15 colon; 561 nM with HL-60(TB) leukemia; 2490 nM in the experiment on HT29 colon; 2390 nM with KM12 colon; 1150 nM in the experiment on MDA-MB-231 breast. Also, the GI50 with NCI-H23 lung is 486 nM; with OVCAR-3 ovarian, 1.04 µM; in the experiment with SK-OV-3 ovarian, 0.582 µM; in the experiment with SN12C renal, 491 nM. Besides, the TGI was more than 26.3 µM in the experiment on EKVX NSCLC; 3.6 µM in the experiment with HL-60(TB) leukemia; 7.12 µM with HT29 colon; 6.87 µM in the experiment with KM12 colon; 8.23 µM in the experiment on MDA-MB-231 breast; 3.55 µM in the experiment on NCI-H23 lung. Also, the figures for the TGI in the experiment on OVCAR-3 ovarian, with SK-OV-3 ovarian and in the experiment on SN12C renal were more than 100 µM, 2.81 µM and 4.15 µM, respectively.
With `CCCCCCCCCCCCNC(=O)[C@H]1CSC(c2ccsc2)N1` (some centres undefined), the GI50 in the experiment with EKVX NSCLC is 991 nM; in the experiment on HCT-15 colon, 883 nM; in the experiment on HL-60(TB) leukemia, 910 nM; in the experiment on HT29 colon it was 995 nM; with KM12 colon, 868 nM; with MDA-MB-231 breast, 946 nM. Further, the GI50 with NCI-H23 lung is 992 nM; in the experiment on OVCAR-3 ovarian it was 0.995 µM; in the experiment on SK-OV-3 ovarian, 0.955 µM; with SN12C renal it was 911 nM. The TGI in the experiment on EKVX NSCLC amounted to 1.85 µM; in the experiment with HCT-15 colon, 1.69 µM; in the experiment with HL-60(TB) leukemia, 2.31 µM; in the experiment on HT29 colon, 1.83 µM; in the experiment on KM12 colon it was 1.64 µM; in the experiment on MDA-MB-231 breast, 1.74 µM. Also, the TGI was determined as 1.94 µM in the experiment with NCI-H23 lung, 1.81 µM in the experiment with OVCAR-3 ovarian, 1.66 µM in the experiment on SK-OV-3 ovarian and 1.64 µM with SN12C renal.

Values taken from PubChem BioAssay (NCI).
